Earlier results on 1 molecule are cited in patent publication US10307441B2, “Pharmaceutical formulations of nitrite and uses thereof” (Board of Supervisors of Louisiana State University and …, priority 2009, dated 2019).

Where [1] appears, read: assumed mid-range PK constant for simulation.

Broadly, the clearance is a measure of how efficiently the substance is removed, as volume per time. Usually half-life stands for the time in which the quantity being followed falls by half. For the molecule `O=NO` [NaNO2, Sodium nitrite], under “assumed PK constant for simulation”, the oral bioavailability is 100%. Also, under setting [1], the clearance was 60.375 L/h and the half-life is 45 min.
